In patent publication US12195482B1 (Arcus Biosciences, Inc., priority 2022, dated 2025):

Key:
[1] = biological target: T1, Axl (Homo sapiens, UniProt P30530); assay: Biochemical potency, HTRF KinEASE-TK kinase assay; set-up: purchased Invitrogen; conditions: 5 nM AXL, 700 μM ATP
T1 sequence (P30530 26-894): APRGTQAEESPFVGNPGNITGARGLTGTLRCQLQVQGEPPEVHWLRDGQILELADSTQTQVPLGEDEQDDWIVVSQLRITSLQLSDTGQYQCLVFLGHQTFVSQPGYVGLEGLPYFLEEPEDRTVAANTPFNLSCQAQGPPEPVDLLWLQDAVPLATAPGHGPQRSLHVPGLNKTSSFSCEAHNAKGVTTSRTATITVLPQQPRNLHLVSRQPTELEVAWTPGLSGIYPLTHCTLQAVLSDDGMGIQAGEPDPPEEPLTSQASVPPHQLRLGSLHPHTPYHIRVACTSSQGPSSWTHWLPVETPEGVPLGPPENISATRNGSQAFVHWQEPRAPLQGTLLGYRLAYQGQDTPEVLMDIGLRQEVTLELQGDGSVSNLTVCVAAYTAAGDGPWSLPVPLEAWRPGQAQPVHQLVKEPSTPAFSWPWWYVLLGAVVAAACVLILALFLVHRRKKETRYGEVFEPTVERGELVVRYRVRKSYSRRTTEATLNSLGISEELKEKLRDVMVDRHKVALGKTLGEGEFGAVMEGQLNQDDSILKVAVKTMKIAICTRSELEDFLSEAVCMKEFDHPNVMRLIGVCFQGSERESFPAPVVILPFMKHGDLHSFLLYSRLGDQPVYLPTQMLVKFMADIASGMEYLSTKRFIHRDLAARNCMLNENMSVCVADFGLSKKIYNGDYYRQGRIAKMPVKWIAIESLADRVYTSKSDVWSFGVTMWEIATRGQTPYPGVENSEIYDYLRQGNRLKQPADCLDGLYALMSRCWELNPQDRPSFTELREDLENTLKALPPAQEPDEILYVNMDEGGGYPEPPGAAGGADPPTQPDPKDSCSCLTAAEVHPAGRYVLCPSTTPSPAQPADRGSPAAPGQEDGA
Method in brief: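 Compounds preincubated 1 h at RT with enzyme in 50 mM HEPES pH 7.4, 10 mM MgCl2, 0.01% BSA, 1 mM DTT; reactions then ran 2 h at RT with 5 nM AXL or 1 nM TYRO3/MER, 800 nM TK substrate-biotin, 700 μM ATP, 1% DMSO. HTRF 665/620 ratio read; percent activity calculated.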

[2] = biological target: T2, p-AXL (Homo sapiens, UniProt P30530); assay: Axl phosphorylation inhibition ELISA in HEK293T cells transfected with NanoLuc-tagged AXL; type: cell-based; conditions: 1 h compound incubation, media (OptiMEM)
T2 construct: expressed in transfected cells; host or cells: HEK293T
T2 sequence (P30530 26-894): T1 sequence (P30530 26-894)
Method in brief: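 HEK293T cells transiently transfected one day earlier with NanoLuc-tagged AXL were exposed to 22-point 2-fold compound dilutions for 1 h at 37° C (70,000 cells/well), then lysed. Lysates captured on anti-phospho-tyrosine coated plates for 2 h; bound p-AXL read by NanoLuc luminescence; IC50 from 4-parameter logistic fit.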

Row | IC50 [1] [nM] | IC50 [2] [nM] | SMILES
1 | < 100 | < 100 | Cc1nccnc1-c1ccc(-c2c[nH]c3ncc(-c4ccc5c(c4)CC[C@@H](N4C6COCC4C6)CC5)cc23)cc1 [Example 48, 6-[(7S)-2-{3-[4-(3-Methylpyrazin-2-yl)phenyl]-1H-pyrrolo[2,3-b]pyridin-5-yl}-6,7,8,9-tetrahydro-5H-benzo[7]annulen-7-yl]-3-oxa-6-azabicyclo[3.1.1]heptane]
2 | < 100 | < 100 | COCCOc1cccnc1-c1ccc(-c2c[nH]c3ncc(-c4ccc5c(c4)CC[C@@H](N4C6COCC4C6)CC5)cc23)cc1 [Example 3, 6-[(7S)-2-(3-{4-[3-(2-Methoxyethoxy)pyridin-2-yl]phenyl}-1H-pyrrolo[2,3-b]pyridin-5-yl)-6,7,8,9-tetrahydro-5H-benzo[7]annulen-7-yl]-3-oxa-6-azabicyclo[3.1.1]heptane]
3 | < 100 | 100 to 1000 | CS(=O)(=O)c1ccccc1-c1ccc(-c2c[nH]c3ncc(-c4ccc5c(c4)CC[C@@H](N4C6COCC4C6)CC5)cc23)cc1 [Example 93, 6-[(7S)-2-(3-{2′-Methanesulfonyl-[1,1′-biphenyl]-4-yl}-1H-pyrrolo[2,3-b]pyridin-5-yl)-6,7,8,9-tetrahydro-5H-benzo[7]annulen-7-yl]-3-oxa-6-azabicyclo[3.1.1]heptane]
4 | < 100 | < 100 | Cc1cc(C)c(-c2ccc(-c3c[nH]c4ncc(-c5ccc6c(c5)CC[C@@H](N5C7COCC5C7)CC6)cc34)cc2)nn1 [Example 80, 6-[(7S)-2-{3-[4-(4,6-Dimethylpyridazin-3-yl)phenyl]-1H-pyrrolo[2,3-b]pyridin-5-yl}-6,7,8,9-tetrahydro-5H-benzo[7]annulen-7-yl]-3-oxa-6-azabicyclo[3.1.1]heptane]
5 | < 100 | 100 to 1000 | Clc1cc(-c2c[nH]c3ncc(-c4ccc5c(c4)CC[C@@H](N4C6COCC4C6)CC5)cc23)ccc1-c1ccccn1 [Example 44, 6-[(7S)-2-{3-[3-Chloro-4-(pyridin-2-yl)phenyl]-1H-pyrrolo[2,3-b]pyridin-5-yl}-6,7,8,9-tetrahydro-5H-benzo[7]annulen-7-yl]-3-oxa-6-azabicyclo[3.1.1]heptane]
6 | < 100 | < 100 | Cc1ccnnc1-c1ccc(-c2c[nH]c3ncc(-c4ccc5c(c4)CC[C@@H](N4C6COCC4C6)CC5)cc23)cc1 [Example 49, 6-[(7S)-2-{3-[4-(4-Methylpyridazin-3-yl)phenyl]-1H-pyrrolo[2,3-b]pyridin-5-yl}-6,7,8,9-tetrahydro-5H-benzo[7]annulen-7-yl]-3-oxa-6-azabicyclo[3.1.1]heptane]
7 | < 100 | < 100 | Cc1nccnc1-c1ccc(-c2c[nH]c3ncc(-c4ccc5c(c4)CC[C@@H](N4C6COCC4C6)CC5)cc23)nc1 [Example 54, 6-[(7S)-2-{3-[5-(3-Methylpyrazin-2-yl)pyridin-2-yl]-1H-pyrrolo[2,3-b]pyridin-5-yl}-6,7,8,9-tetrahydro-5H-benzo[7]annulen-7-yl]-3-oxa-6-azabicyclo[3.1.1]heptane]
8 | < 100 | < 100 | Cc1cccnc1-c1ccc(-c2n[nH]c3ncc(-c4ccc5c(c4)CC[C@@H](N4C6COCC4C6)CC5)cc23)cc1 [Example 2, 6-[(7S)-2-{3-[4-(3-Methylpyridin-2-yl)phenyl]-2H-pyrazolo[3,4-b]pyridin-5-yl}-6,7,8,9-tetrahydro-5H-benzo[7]annulen-7-yl]-3-oxa-6-azabicyclo[3.1.1]heptane]
9 | < 100 | < 100 | Cc1cnc(C)c(-c2ccc(-c3c[nH]c4ncc(-c5ccc6c(c5)CC[C@@H](N5C7COCC5C7)CC6)cc34)cc2)n1 [Example 53, 6-[(7S)-2-{3-[4-(3,6-Dimethylpyrazin-2-yl)phenyl]-1H-pyrrolo[2,3-b]pyridin-5-yl}-6,7,8,9-tetrahydro-5H-benzo[7]annulen-7-yl]-3-oxa-6-azabicyclo[3.1.1]heptane]
10 | < 100 | < 100 | N#Cc1cccnc1-c1ccc(-c2c[nH]c3ncc(-c4ccc5c(c4)CC[C@@H](N4C6COCC4C6)CC5)cc23)cc1 [Example 46, 2-(4-{5-[(7S)-7-{3-Oxa-6-azabicyclo[3.1.1]heptan-6-yl}-6,7,8,9-tetrahydro-5H-benzo[7]annulen-2-yl]-1H-pyrrolo[2,3-b]pyridin-3-yl}phenyl)pyridine-3-carbonitrile]
11 | < 100 | 100 to 1000 | FC(F)c1cccnc1-c1ccc(-c2n[nH]c3ncc(-c4ccc5c(c4)CC[C@@H](N4C6COCC4C6)CC5)cc23)cc1 [Example 89, 6-[(7S)-3-[3-[4-[3-(Difluoromethyl)pyridin-2-yl]phenyl]-1H-pyrazolo[3,4-b]pyridin-5-yl]-6,7,8,9-tetrahydro-5H-benzo[7]annulen-7-yl]-3-oxa-6-azabicyclo[3.1.1]heptane]

Continued, molecule first:

Row | SMILES | IC50 [1] [nM] | IC50 [2] [nM]
12 | Cc1cc(C)c(-c2ccc(-c3n[nH]c4ncc(-c5ccc6c(c5)CC[C@@H](N5C7COCC5C7)CC6)cc34)cc2)nn1 [Example 77, 6-[(7S)-2-{3-[4-(4,6-Dimethylpyridazin-3-yl)phenyl]-1H-pyrazolo[3,4-b]pyridin-5-yl}-6,7,8,9-tetrahydro-5H-benzo[7]annulen-7-yl]-3-oxa-6-azabicyclo[3.1.1]heptane] | < 100 | < 100
13 | C[C@@H]1CCCN1[C@@]1(C)CCc2ccc(-c3cnc4[nH]nc(-c5ccc(-c6ncco6)cc5)c4c3)cc2CC1 [Example 90, 2-(4-{5-[(7S)-7-Methyl-7-[(2R)-2-methylpyrrolidin-1-yl]-6,7,8,9-tetrahydro-5H-benzo[7]annulen-2-yl]-2H-pyrazolo[3,4-b]pyridin-3-yl}phenyl)-1,3-oxazole] | < 100 | < 100
14 | Cc1cnc(C)c(-c2ccc(-c3c[nH]c4ncc(-c5ccc6c(c5)CC[C@@](C)(N5CCC[C@H]5C)CC6)cc34)cc2)n1 [Example 58, 2,5-Dimethyl-3-(4-{5-[(7S)-7-methyl-7-[(2R)-2-methylpyrrolidin-1-yl]-6,7,8,9-tetrahydro-5H-benzo[7]annulen-2-yl]-1H-pyrrolo[2,3-b]pyridin-3-yl}phenyl)pyrazine] | < 100 | < 100
15 | FC(F)(F)c1cccnc1-c1ccc(-c2n[nH]c3ncc(-c4ccc5c(c4)CC[C@@H](N4C6COCC4C6)CC5)cc23)cc1 [Example 88, 6-[(7S)-3-[3-[4-[3-(Trifluoromethyl)pyridin-2-yl]phenyl]-1H-pyrazolo[3,4-b]pyridin-5-yl]-6,7,8,9-tetrahydro-5H-benzo[7]annulen-7-yl]-3-oxa-6-azabicyclo[3.1.1]heptane] | < 100 | 100 to 1000
16 | c1ccc(-c2ccc(-c3c[nH]c4ncc(-c5ccc6c(c5)CC[C@@H](N5C[C@@H]7C[C@H]5CO7)CC6)cc34)cc2)nc1 [Example 33, (1S,4S)-5-[(7S)-3-[3-(4-Pyridin-2-ylphenyl)-1H-pyrrolo[2,3-b]pyridin-5-yl]-6,7,8,9-tetrahydro-5H-benzo[7]annulen-7-yl]-2-oxa-5-azabicyclo[2.2.1]heptane] | < 100 | 100 to 1000
17 | Cc1cnc(-c2ccc(-c3c[nH]c4ncc(-c5ccc6c(c5)CC[C@@H](N5CCCC5)CC6)cc34)cc2)c(C)n1 [Example 59, 3,5-Dimethyl-2-(4-{5-[(7S)-7-(pyrrolidin-1-yl)-6,7,8,9-tetrahydro-5H-benzo[7]annulen-2-yl]-1H-pyrrolo[2,3-b]pyridin-3-yl}phenyl)pyrazine] | < 100 | 100 to 1000
18 | Cc1cc(C)c(-c2ccc(-c3n[nH]c4ncc(-c5ccc6c(c5)CC[C@@](C)(N5CCC[C@H]5C)CC6)cc34)cc2)nn1 [Example 78, 4,6-Dimethyl-3-(4-{5-[(7S)-7-methyl-7-[(2R)-2-methylpyrrolidin-1-yl]-6,7,8,9-tetrahydro-5H-benzo[7]annulen-2-yl]-1H-pyrazolo[3,4-b]pyridin-3-yl}phenyl)pyridazine] | < 100 | < 100
19 | CC(C)(C#N)c1cccnc1-c1ccc(-c2n[nH]c3ncc(-c4ccc5c(c4)CC[C@@H](N4C6COCC4C6)CC5)cc23)cc1 [Example 85, 2-Methyl-2-[2-[4-[5-[(7S)-7-(3-oxa-6-azabicyclo[3.1.1]heptan-6-yl)-6,7,8,9-tetrahydro-5H-benzo[7]annulen-3-yl]-1H-pyrazolo[3,4-b]pyridine-3-yl]phenyl]pyridine-3-yl]propanenitrile] | < 100 | < 100
